Patent US8362000B2, “Azetidinyl diamides as monoacylglycerol lipase inhibitors” (Janssen Pharmaceutica NV, priority 2009, dated 2013)
Positions count from the first letter of the chain named. Like-named read-outs stand apart in the source and are kept apart here.

Assays:
[1] = target: T1, purified wild type MGL (wt-MGLL 6H-11-313) (Homo sapiens, UniProt Q99685)
T1 sequence (Q99685 1-303): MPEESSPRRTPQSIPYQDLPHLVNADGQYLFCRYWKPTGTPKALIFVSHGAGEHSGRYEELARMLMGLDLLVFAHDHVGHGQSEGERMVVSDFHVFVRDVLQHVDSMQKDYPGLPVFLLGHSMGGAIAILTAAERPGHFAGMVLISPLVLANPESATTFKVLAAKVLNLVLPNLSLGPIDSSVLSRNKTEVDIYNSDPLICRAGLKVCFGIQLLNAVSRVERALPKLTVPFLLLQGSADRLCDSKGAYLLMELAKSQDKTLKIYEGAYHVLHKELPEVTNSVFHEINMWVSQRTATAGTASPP

mutant MGL = target: T2, mutant MGL (Homo sapiens, UniProt Q99685, L169S/L176S); assay: MGL ThermoFluor assay - mutant; type: binding
T2 sequence (Q99685 1-303 L169S/L176S): T1 sequence (Q99685 1-303) with L169S, L176S

[2] = ThermoFluor concentration-response, read-out: MGL mutant ThermoFluor Kd
[3] = ThermoFluor thermal stability binding assay, read-out: MGL mutant ThermoFluor Kd
[4] = ThermoFluor, compound concentration measured by qNMR, read-out: MGL mutant ThermoFluor qKd (using qNMR conc.)
[5] = compound concentration measured by qNMR, read-out: MGL mutant ThermoFluor qKd (using qNMR conc.)

SMILES	IC50 [1] [nM]	Kd (mutant MGL; [2]) [nM]	Kd (mutant MGL; [3]) [nM]	Kd (mutant MGL; [4]) [nM]	Kd (mutant MGL; [5]) [nM]
O=C(c1ccc2nc(C(F)(F)F)cc(Cl)c2c1)N1CCN(C2CN(C(=O)c3cscn3)C2)CC1 [Cpd 859]	8820	1430			
O=C(c1cc2ccc(C(F)(F)F)nc2o1)N1CCN(C2CN(C(=O)c3nccs3)C2)CC1 [Cpd 860]	8820	1760			
CC(C)(C)OC(=O)N1CCc2cccc(C(=O)N3CC(N4CCN(C(=O)c5cscn5)CC4)C3)c2C1 [Cpd 861]	9220		2630		
Cc1c(C(=O)N2CC(N3CCN(C(=O)c4cscn4)CC3)C2)oc2ccc(F)cc12 [Cpd 862]	9510	> 21900			
O=C(c1cc2nc(C(F)(F)F)ccc2[nH]1)N1CC(N2CCN(C(=O)c3nccs3)CC2)C1 [Cpd 863]	10200			4370	
O=C(c1cc2cc(Br)cnc2o1)N1CC(N2CCN(C(=O)c3nccs3)CC2)C1 [Cpd 864]	10200	2410			
O=C(c1cscn1)N1CCN(C2CN(C(=O)c3cc4ccc(C(F)(F)F)nc4[nH]3)C2)CC1 [Cpd 865]	10300			2500	
Cc1nc2cc(C(=O)N3CC(N4CCN(C(=O)c5cscn5)CC4)C3)ccc2n1CCC(F)(F)F [Cpd 866]	10300				824
Cc1c(C(=O)N2CC(N3CCN(C(=O)c4nccs4)CC3)C2)nc2ccc(Br)cn12 [Cpd 868]	12100			> 23100	
O=C(c1ccc(Oc2ccccn2)cc1)N1CC(N2CCN(C(=O)C(F)(F)F)CC2)C1 [Cpd 869]	12900				6200
O=C(c1ccc(Oc2ccc(Br)cn2)cc1)N1CC(N2CCN(C(=O)C(F)(F)F)CC2)C1 [Cpd 872]	14000				10000
O=C(c1cn2cc(Br)ccc2n1)N1CC(N2CCN(C(=O)c3nccs3)CC2)C1 [Cpd 873]	14700			9200	
O=C(c1ccccc1)c1c[nH]c(C(=O)N2CC(N3CCN(C(=O)c4nccs4)CC3)C2)c1 [Cpd 874]	15200			8460	
Cc1c(C(=O)N2CC(N3CCN(C(=O)c4nccs4)CC3)C2)sc2ccc(C(F)(F)F)cc12 [Cpd 897]	< 5		2		
O=C(c1ccc2c(c1)[nH]c(=O)n2C1CCC(F)(F)CC1)N1CC(N2CCN(C(=O)c3nccs3)CC2)C1 [Cpd 932]	104	8			
O=C(c1ccc2c(c1)[nH]c(=O)n2-c1ccccc1)N1CC(N2CCN(C(=O)c3nccs3)CC2)C1 [Cpd 933, 1-Phenyl-5-({3-[4-(1,3-thiazol-2-ylcarbonyl)piperazin-1-yl]azetidin-1-yl}carbonyl)-1,3-dihydro-2H-benzimidazol-2-one]	191	34			
O=C(c1ccc2c(c1)[nH]c(=O)n2-c1ccc(F)cc1)N1CC(N2CCN(C(=O)c3nccs3)CC2)C1 [Cpd 934, 1-(4-Fluorophenyl)-5-({3-[4-(1,3-thiazol-2-ylcarbonyl)piperazin-1-yl]azetidin-1-yl}carbonyl)-1,3-dihydro-2H-benzimidazol-2-one]	174	25			
O=C(c1ccc2c(c1)[nH]c(=O)n2-c1ccc(F)c(F)c1)N1CC(N2CCN(C(=O)c3nccs3)CC2)C1 [Cpd 935]	100	34			
O=C(c1ccc2c(c1)[nH]c(=O)n2-c1ccc(C(F)(F)F)cc1)N1CC(N2CCN(C(=O)c3nccs3)CC2)C1 [Cpd 936]	13	12			
O=C(c1ccc2c(c1)[nH]c(=O)n2CC(F)(F)F)N1CC(N2CCN(C(=O)c3nccs3)CC2)C1 [Cpd 937]	250	96			
O=C(c1ccc2c(c1)[nH]c(=O)n2CCC(F)(F)F)N1CC(N2CCN(C(=O)c3nccs3)CC2)C1 [Cpd 938]	698	91			
O=C(c1ccc2c(c1)[nH]c(=O)n2-c1ccccc1)N1CC(N2CCN(C(=O)c3cscn3)CC2)C1 [Cpd 939]	2360	302			
O=C(c1ccc2c(c1)[nH]c(=O)n2-c1ccc(F)cc1)N1CC(N2CCN(C(=O)c3cscn3)CC2)C1 [Cpd 940]	2240	259			
O=C(c1ccc2c(c1)[nH]c(=O)n2-c1ccc(F)c(F)c1)N1CC(N2CCN(C(=O)c3cscn3)CC2)C1 [Cpd 941]	1370	389			
O=C(c1ccc2c(c1)[nH]c(=O)n2-c1ccc(C(F)(F)F)cc1)N1CC(N2CCN(C(=O)c3cscn3)CC2)C1 [Cpd 942]	216	135			

SMILES	IC50 [1] [nM]	Kd (mutant MGL; [2]) [nM]	Kd (mutant MGL; [3]) [nM]	Kd (mutant MGL; [4]) [nM]	Kd (mutant MGL; [5]) [nM]
O=C(c1ccc2c(c1)[nH]c(=O)n2CC(F)(F)F)N1CC(N2CCN(C(=O)c3cscn3)CC2)C1 [Cpd 943]	10400	1050			
O=C(c1ccc2c(c1)[nH]c(=O)n2CCC(F)(F)F)N1CC(N2CCN(C(=O)c3cscn3)CC2)C1 [Cpd 944]	7320	802			
O=C(c1ccc2c(c1)[nH]c(=O)n2C1CCC(F)(F)CC1)N1CC(N2CCN(C(=O)c3cscn3)CC2)C1 [Cpd 945]	1480	83			
CN(c1ccccc1)S(=O)(=O)c1ccc(C(=O)N2CC(N3CCN(C(=O)c4nccs4)CC3)C2)cc1 [Cpd 946]	1000			1690	
O=C(c1ccc(S(=O)(=O)N2CCCCC2)cc1)N1CC(N2CCN(C(=O)c3nccs3)CC2)C1 [Cpd 947]	1060			653	
O=C(c1ccc(Cl)nc1)c1c[nH]c2cc(C(=O)N3CC(N4CCN(C(=O)c5nccs5)CC4)C3)ccc12 [Cpd 949]	163	178			
O=C(c1cccnc1)c1c[nH]c2cc(C(=O)N3CC(N4CCN(C(=O)c5nccs5)CC4)C3)ccc12 [Cpd 950]	1500				883
O=C(c1ccc2c(N3CCSCC3)ncnc2c1)N1CC(N2CCN(C(=O)c3nccs3)CC2)C1 [Cpd 951, 7-({3-[4-(1,3-Thiazol-2-ylcarbonyl)piperazin-1-yl]azetidin-1-yl}carbonyl)-4-thiomorpholin-4-ylquinazoline]	540				117
CC1(C)c2ccccc2-c2ccc(C(=O)N3CC(N4CCN(C(=O)c5nccs5)CC4)C3)cc21 [Cpd 952]	12			19	
C[C@@H]1CN(C(=O)c2nccs2)C[C@H](C)N1C1CN(C(=O)c2cc3ccc(C(F)(F)F)cc3s2)C1 [Cpd 953]	> 16700			> 26900	
C[C@@H]1CN(C2CN(C(=O)c3cc4ccc(C(F)(F)F)cc4s3)C2)C[C@H](C)N1C(=O)c1nccs1 [Cpd 954, (2R,6S)-2,6-Dimethyl-1-(1,3-thiazol-2-ylcarbonyl)-4-(1-{[6-(trifluoromethyl)-1-benzothiophen-2-yl]carbonyl}azetidin-3-yl)piperazine]	2740			3440	
O=C(c1ccc(OCc2cccc(Cl)c2)cc1)N1CC(N2CCN(C(=O)c3nccs3)CC2)C1 [Cpd 957]	< 5		8		
O=C(c1ccc(CNc2cccc(Cl)c2)cc1)N1CC(N2CCN(C(=O)C(F)(F)F)CC2)C1 [Cpd 964]	1700				3200
O=C(c1ccc(OCc2ccc3ccccc3n2)cc1)N1CC(N2CCN(C(=O)c3nccs3)CC2)C1 [Cpd 967]	9		44		
O=C(c1ccc(SCc2cccc(C(F)(F)F)c2)cc1)N1CC(N2CCN(C(=O)C(F)(F)F)CC2)C1 [Cpd 974]	177				1780
O=C(c1ccc(CS(=O)(=O)c2cccc(C(F)(F)F)c2)cc1)N1CC(N2CCN(C(=O)c3nccs3)CC2)C1 [Cpd 976, 1-(1,3-Thiazol-2-ylcarbonyl)-4-(1-{[4-({[3-(trifluoromethyl)phenyl]sulfonyl}methyl)phenyl]carbonyl}azetidin-3-yl)piperazine]	574	1840			
O=C(c1ccc(OCc2cncc(Cl)c2)cc1)N1CC(N2CCN(C(=O)C(F)(F)F)CC2)C1 [Cpd 979]	648				1140
O=C(c1nccs1)N1CCN(C2CN(C(=O)c3cccc4[nH]c(Cc5ccccc5)nc34)C2)CC1 [Cpd 980]	6790		5000		
O=C(c1ccc2c(c1)C(Cc1cccc(C(F)(F)F)c1)(Cc1cccc(C(F)(F)F)c1)C(=O)N2)N1CC(N2CCN(C(=O)c3nccs3)CC2)C1 [Cpd 992]	7760	561			
O=C(c1nccs1)N1CCN(C2CN(C(=O)c3cn(Cc4ccccc4)c4ccccc34)C2)CC1 [Cpd 993]	1510	333			
O=C(c1ccc2c(c1)CCN2Cc1ccccc1)N1CC(N2CCN(C(=O)c3nccs3)CC2)C1 [Cpd 994, 1-Benzyl-5-({3-[4-(1,3-thiazol-2-ylcarbonyl)piperazin-1-yl]azetidin-1-yl}carbonyl)-2,3-dihydro-1H-indole]	13	2			
O=C(c1ccc(Cc2cccc(C(F)(F)F)c2)cc1)N1CC(N2CCN(C(=O)c3nccs3)CC2)C1 [Cpd 995]	< 5	2			
O=C(c1cccc(CNc2ccccc2F)c1)N1CC(N2CCN(C(=O)c3nccs3)CC2)C1 [Cpd 1005]	237	83			
Cc1c(Cc2ccc(C(F)(F)F)cc2)cccc1C(=O)N1CC(N2CCN(C(=O)c3nccs3)CC2)C1 [Cpd 1008]	< 5	89			
